From PubChem BioAssay (NCI)
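GI50 = concentration required for 50% inhibition of growth. TGI denotes the concentration required for complete inhibition of growth.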

What was measured:
Assay in all cases: NCI tumour cell line growth inhibition, 384-well format; in the data active means GI50 below about 0.43 µM; inactive means the rest
[1] = system: NCI-H322M lung
[2] = system: NCI-H460 NSCLC
[3] = system: NCI-H522 lung
[4] = system: NCI/ADR-RES ovarian
[5] = system: OVCAR-3 ovarian
[6] = system: OVCAR-4 ovarian
[7] = system: OVCAR-5 ovarian
[8] = system: OVCAR-8 ovarian
[9] = system: PC-3 prostate
[10] = system: RPMI-8226 leukemia
[11] = system: RXF 393 renal
[12] = system: SF-268 CNS
[13] = system: SF-295 CNS
[14] = system: SF-539 CNS
[15] = system: SK-MEL-2 melanoma
[16] = system: SK-MEL-28 melanoma
[17] = system: SK-MEL-5 melanoma
[18] = system: SK-OV-3 ovarian
[19] = system: SN12C renal
[20] = system: SNB-19 CNS
[21] = system: SNB-75 CNS
[22] = system: SR leukemia
[23] = system: SW-620 colon
[24] = system: T-47D breast
[25] = system: TK-10 renal
[26] = system: U251 glioblastoma
[27] = system: UACC-257 melanoma
[28] = system: UACC-62 melanoma

O=C1c2ccccc2-c2n[nH]c3cccc1c23
41.5 µM: TGI [21]
37.6 µM: TGI [2]
6.99 µM: TGI [22]
57 µM: TGI [12]
14.6 µM: TGI [18]
81.4 µM: TGI [11]
30 µM: TGI [10]
inactive: GI50 [2] 6.56 µM | GI50 [3] 7.22 µM | GI50 [4] 53.9 µM | GI50 [5] 20.2 µM | GI50 [6] 32 µM | GI50 [7] 17.8 µM | GI50 [8] 22.1 µM | GI50 [9] 20.8 µM | GI50 [10] 4.09 µM | GI50 [11] 11.7 µM | GI50 [12] 5.72 µM | GI50 [13] 34.1 µM | GI50 [14] 8.72 µM | GI50 [15] 5.03 µM | GI50 [16] 74.8 µM | GI50 [17] 5.77 µM | GI50 [18] 3.03 µM | GI50 [19] 23.3 µM | GI50 [20] 45.1 µM | GI50 [21] 1.87 µM | GI50 [22] 2.38 µM | GI50 [23] 11.7 µM | GI50 [24] 21.5 µM | GI50 [25] 4.21 µM | GI50 [26] 9.02 µM | GI50 [27] 27.9 µM | GI50 [28] 15.5 µM
97.4 µM: TGI [14]
> 100 µM: TGI [1] | TGI [4] | TGI [5] | TGI [6] | TGI [7] | TGI [8] | TGI [9] | TGI [13] | TGI [16] | TGI [19] | TGI [20] | TGI [23] | TGI [24] | TGI [25] | TGI [26] | TGI [27] | TGI [28]
26.6 µM: TGI [17]
53.5 µM: TGI [3]
17 µM: TGI [15]
